The text below walks through data of article PMC10824666 (Nature Cancer, 2023).

Like-named read-outs stand apart in the source and are kept apart here.

Test in all cases: biochemical
Holding throughout (set-up): Eurofins DiscoverX kinase panel, competitive binding assay at 1 uM, percent of DMSO control

One assay addresses T1, TAOK2 (Homo sapiens, UniProt Q9UL54).
T1 sequence (Q9UL54 1-1235): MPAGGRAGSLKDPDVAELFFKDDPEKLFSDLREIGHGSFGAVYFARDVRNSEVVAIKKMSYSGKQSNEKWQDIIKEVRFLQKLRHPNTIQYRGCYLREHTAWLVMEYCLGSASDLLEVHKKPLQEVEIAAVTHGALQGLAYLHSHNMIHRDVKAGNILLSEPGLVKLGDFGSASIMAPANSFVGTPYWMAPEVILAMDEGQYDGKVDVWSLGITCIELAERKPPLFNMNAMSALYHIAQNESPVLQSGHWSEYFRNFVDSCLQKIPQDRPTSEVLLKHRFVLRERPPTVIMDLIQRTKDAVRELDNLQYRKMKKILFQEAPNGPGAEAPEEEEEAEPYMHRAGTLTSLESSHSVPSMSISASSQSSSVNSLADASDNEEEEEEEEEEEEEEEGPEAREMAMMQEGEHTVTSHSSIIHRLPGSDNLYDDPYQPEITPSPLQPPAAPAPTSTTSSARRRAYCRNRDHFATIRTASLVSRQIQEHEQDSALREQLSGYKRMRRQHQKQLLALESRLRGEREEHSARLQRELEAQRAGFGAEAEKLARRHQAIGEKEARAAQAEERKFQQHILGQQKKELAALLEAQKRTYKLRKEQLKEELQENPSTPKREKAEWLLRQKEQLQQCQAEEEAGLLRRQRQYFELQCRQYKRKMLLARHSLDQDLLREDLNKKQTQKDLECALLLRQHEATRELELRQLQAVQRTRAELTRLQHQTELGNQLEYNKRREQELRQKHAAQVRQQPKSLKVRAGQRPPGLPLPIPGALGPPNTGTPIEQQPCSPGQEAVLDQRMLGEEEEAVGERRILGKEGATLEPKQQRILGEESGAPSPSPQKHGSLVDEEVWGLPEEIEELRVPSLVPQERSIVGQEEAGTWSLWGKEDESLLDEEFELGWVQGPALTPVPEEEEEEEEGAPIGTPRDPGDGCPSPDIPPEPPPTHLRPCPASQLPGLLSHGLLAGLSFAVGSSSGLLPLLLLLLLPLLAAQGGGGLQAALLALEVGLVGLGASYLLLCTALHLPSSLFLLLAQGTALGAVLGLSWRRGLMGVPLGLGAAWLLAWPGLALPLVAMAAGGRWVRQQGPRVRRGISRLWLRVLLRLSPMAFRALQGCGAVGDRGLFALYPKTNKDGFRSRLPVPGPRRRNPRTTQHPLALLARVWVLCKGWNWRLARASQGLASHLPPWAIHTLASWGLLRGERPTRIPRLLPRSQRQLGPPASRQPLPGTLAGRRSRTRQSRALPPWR
To be noted: competitive binding, percent of DMSO control. In a few lines:
(§1)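 Competitive binding assay across a 96-kinase panel with KIF18A compounds at 1 µM; values given as percentage of control (POC), single experiment.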

The target in another assay is T2, PKA alpha (Homo sapiens, UniProt P17612).
T2 construct: gene PRKACA
The note with it: read-out: Kinome Profiling performed by Eurofins DiscoverX / AM-5308, 1.0 µM / POC; competitive binding, percent of DMSO control. In a few lines:
as §1

The target of the next assay is T3, PKR (Homo sapiens, UniProt P19525).
T3 construct: gene EIF2AK2
T3 sequence (P19525 whole entry): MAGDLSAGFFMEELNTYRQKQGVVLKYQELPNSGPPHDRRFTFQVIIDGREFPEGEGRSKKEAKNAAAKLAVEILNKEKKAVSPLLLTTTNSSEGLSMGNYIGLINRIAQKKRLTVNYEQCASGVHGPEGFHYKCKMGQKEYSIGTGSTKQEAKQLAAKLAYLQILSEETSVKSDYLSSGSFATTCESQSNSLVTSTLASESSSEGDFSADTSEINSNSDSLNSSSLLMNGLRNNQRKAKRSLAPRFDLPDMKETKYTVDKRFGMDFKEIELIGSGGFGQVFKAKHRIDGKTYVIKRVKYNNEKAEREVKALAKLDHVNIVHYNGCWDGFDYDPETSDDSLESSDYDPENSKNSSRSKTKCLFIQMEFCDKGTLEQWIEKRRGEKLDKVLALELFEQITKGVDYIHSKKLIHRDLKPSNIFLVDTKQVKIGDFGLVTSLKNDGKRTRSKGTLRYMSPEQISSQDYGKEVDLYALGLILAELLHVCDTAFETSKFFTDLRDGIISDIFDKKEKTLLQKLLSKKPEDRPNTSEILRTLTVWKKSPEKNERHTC
To be noted: read-out: Kinome Profiling performed by Eurofins DiscoverX / AM-5308, 1.0 µM / POC; competitive binding, percent of DMSO control. In a few lines:
as §1

For `CC(C)(CO)Nc1ccc(C(=O)Nc2cccc(S(=O)(=O)C3CCCC3)c2)c(N2CCC3(CC2)CC3)n1` [AM-0277], on TAOK2 (read-out: Kinome Profiling performed by Eurofins DiscoverX / AM-0277, 1.0 µM / POC), the remaining activity at 1 µM is 98%.

As to `CC(C)(C)NS(=O)(=O)c1cccc(NC(=O)c2ccc(S(=O)(=O)NC(C)(C)C)cc2N2CCC3(CC2)CC3)c1` [AM-1882], the remaining activity at 1 µM at TAOK2 (read-out: Kinome Profiling performed by Eurofins DiscoverX / AM-1882, 1.0 µM / POC) was 81.5%.

Turning to `C[C@@H]1CN(c2cccc(NC(=O)c3ccc(NS(=O)(=O)CCO)cc3N3CCC4(CC3)CC4)n2)CCO1` [AM-5308], the remaining activity at 1 µM at PKA alpha was 100%; on PKR it was 90%; on TAOK2 (read-out: Kinome Profiling performed by Eurofins DiscoverX / AM-5308, 1.0 µM / POC) it was 81%.
